Experiments:
normal mouse = test: Bone marrow toxicity after one-cycle PO administration to a normal mouse; format: in vivo
Excerpt: In the case of elderly patients who cannot receive bone marrow transplants, that is, the main targets of decitabine and azacytidine, toxicity in the bone marrow becomes the limit dose that determines a dose for administration, and, thus, the maximum dose that enables safe administration was to be determined.

Molm13 AML cells = test: Xenograft model with subcutaneously transplanted Molm13 AML cells; format: in vivo, mouse; settings: 1.5 or 2.5 mpk PO, one cycle
Mouse PK (AUC) = format: in vivo; settings: for AUC: in vivo, mouse
Excerpt: (§1) Without wishing to be bound by theory, this is excellent efficacy at a level that is impossible to reach by the same family of cytidine-based drugs such as decitabine or azacytidine, which was conventionally used, and according to conventional reports on Aza-T-dCyd, the level corresponds to a dose of a level expected to have toxicity.

[1] = Human PK parameter prediction by interspecies (allometric) scaling; settings: for F_human (equation result): in % (unit assumed)
Excerpt: PK parameters were scaled allometrically and used to extrapolate the PK in a 70 kg human. Details are described in the next section.
Simple allometric scaling, was used to predict CL, Vc, Vp, and Q. Y is PK parameter, BW is body weight, a is the allometric coefficient, and b is the allometric exponent. Final PK parameters, CL, Vc, Vp, and Q, were extrapolated based on the best-fit-lines (FIG. 8).
See Musther et al. (2014) European Journal of Pharmaceutical Sciences 57: 280-291.
For absorption rate constant (Ka) and bioavailability (F), animal parameters were used.

[2] = Absorption parameters over three species; format: in vivo, mice, rats, or dogs
Excerpt: Details are described in the next section. […] See also FIG. 3 and FIG. 7.
The human F calculated by the equation reported in literature was about 0.65 (from mouse), 0.59 (from rat), or 0.66 (from dog). See Musther et al. (2014) European Journal of Pharmaceutical Sciences 57: 280-291.

[3] = Simulation of human PK using decitabine PK parameters; settings: from animal parameters, used in human simulation
Excerpt: as §1

MV4-11 AML cells [4] = test: Xenograft AML model with subcutaneously transplanted MV4-11 AML cells, alone and in combination with Venetoclax; format: in vivo, mouse; settings: Aza-T-dCyd 2.0 mpk PO alone, Aza-T-dCyd 0.5 mpk with Venetoclax 50 mpk PO, Azacitidine 5.0 mpk IP alone
Excerpt: 5.0 mpk of Azacitidine alone; or 2.5 mpk of Azacitidine in combination of 50 mpk of Venetoclax were intraperitoneal (IP) administered as a control.

[5] = test system: blood cancer mouse models; test: Blood cancer mouse models (summary statement); format: in vivo; settings: 1.4 to 2.6 mpk PO for 5 days, 2-day break, 9-day break
[6] = test system: MDS orthotopic animal models; settings: reported in 2018; cited from earlier work
DNMT1 = DNMT1 (Homo sapiens, UniProt P26358); settings: background statement; cited from earlier work
cytidine deaminase = cytidine deaminase (Homo sapiens, UniProt P32320); settings: compared to conventional compounds with a 5-azacytidine backbone; cited from earlier work
[7] = Animal PK, NCA parameters, rat; settings: in vivo
[8] = Animal PK, NCA parameters, dog; settings: in vivo
[9] = Animal PK, NCA parameters, mouse; settings: in vivo
MV4-11 AML cells [10] = test: Blood analysis (CBC sampling) in the systemic AML model; settings: blood samples collected in the AML model experiment
MV4-11 AML cells [11] = test: Systemic AML model, MV4-11 AML cells transplanted into the bone marrow (survival, clinical observations)
[12] = cited from earlier work
in vivo [13] = settings: mouse, iv, 1 mg/kg
in vivo [14] = settings: rat, iv, 1 mg/kg
in vivo [15] = settings: dog, iv, 0.33 mg/kg
[16] = human decitabine parameter used in simulation

Chain of cytidine deaminase (P32320 whole entry, species assumed): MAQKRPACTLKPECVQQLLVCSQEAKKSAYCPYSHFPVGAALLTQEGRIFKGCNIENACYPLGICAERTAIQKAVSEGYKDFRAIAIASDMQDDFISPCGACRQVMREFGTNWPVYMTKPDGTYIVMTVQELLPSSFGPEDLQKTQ
Chain of DNMT1 (P26358 whole entry, species assumed): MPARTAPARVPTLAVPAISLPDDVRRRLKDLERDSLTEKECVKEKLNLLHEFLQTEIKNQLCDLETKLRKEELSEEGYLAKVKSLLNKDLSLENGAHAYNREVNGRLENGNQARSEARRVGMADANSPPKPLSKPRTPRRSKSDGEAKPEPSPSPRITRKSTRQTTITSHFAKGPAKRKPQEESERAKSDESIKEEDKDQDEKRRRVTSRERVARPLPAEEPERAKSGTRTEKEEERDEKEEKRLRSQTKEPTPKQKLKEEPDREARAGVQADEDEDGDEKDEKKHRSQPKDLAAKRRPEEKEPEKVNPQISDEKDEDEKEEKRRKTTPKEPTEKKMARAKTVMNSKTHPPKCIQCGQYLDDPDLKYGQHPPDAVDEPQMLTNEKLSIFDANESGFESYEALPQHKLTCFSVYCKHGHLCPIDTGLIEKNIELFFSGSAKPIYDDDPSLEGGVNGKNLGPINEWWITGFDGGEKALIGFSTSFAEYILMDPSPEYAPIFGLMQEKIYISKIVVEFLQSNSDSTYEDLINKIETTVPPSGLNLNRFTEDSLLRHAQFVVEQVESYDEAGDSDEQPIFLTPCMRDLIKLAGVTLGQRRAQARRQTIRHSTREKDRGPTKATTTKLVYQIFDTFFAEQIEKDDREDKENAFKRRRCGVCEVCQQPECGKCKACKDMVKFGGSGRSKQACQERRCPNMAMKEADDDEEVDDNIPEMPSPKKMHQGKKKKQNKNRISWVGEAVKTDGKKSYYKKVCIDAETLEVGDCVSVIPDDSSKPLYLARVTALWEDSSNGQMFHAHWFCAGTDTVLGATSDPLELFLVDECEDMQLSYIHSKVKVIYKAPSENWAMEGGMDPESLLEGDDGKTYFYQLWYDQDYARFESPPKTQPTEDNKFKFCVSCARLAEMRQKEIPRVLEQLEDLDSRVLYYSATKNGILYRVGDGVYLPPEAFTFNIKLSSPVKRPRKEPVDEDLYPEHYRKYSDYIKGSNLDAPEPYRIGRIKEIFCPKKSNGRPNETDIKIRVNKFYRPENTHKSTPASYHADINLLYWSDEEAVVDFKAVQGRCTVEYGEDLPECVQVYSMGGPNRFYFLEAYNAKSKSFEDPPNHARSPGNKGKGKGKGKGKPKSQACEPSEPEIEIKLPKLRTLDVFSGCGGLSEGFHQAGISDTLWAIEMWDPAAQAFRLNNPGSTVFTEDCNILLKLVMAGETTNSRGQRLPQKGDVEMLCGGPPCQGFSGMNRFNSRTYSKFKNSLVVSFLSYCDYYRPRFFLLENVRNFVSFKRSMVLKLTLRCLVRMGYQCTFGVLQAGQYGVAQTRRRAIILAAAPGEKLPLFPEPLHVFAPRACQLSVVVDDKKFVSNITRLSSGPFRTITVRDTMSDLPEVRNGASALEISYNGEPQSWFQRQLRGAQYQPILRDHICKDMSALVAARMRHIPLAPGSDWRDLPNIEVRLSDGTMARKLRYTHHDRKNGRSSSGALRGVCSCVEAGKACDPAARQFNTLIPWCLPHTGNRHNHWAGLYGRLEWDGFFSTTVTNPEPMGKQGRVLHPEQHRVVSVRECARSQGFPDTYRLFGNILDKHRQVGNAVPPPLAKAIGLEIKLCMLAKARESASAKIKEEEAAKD

Nc1ncn(C2CC(O)C(CO)S2)c(=O)n1 (stereo not drawn) [Aza-T-dCyd, 4′-Thio-5-aza-2′-deoxycytidine]
change in the bone marrow (normal mouse; 2.5 mpk PO, one cycle): a significant change in the bone marrow started to be observed
viability and composition of each cell in the bone marrow (normal mouse; up to 2.0 mpk PO, one cycle (5 days, 2-day break, 5 days, 9-day break)): no significant change in the viability and composition of each cell in the bone marrow
anticancer efficacy (Molm13 AML cells): excellent anticancer efficacy close to tumor regression
maximum range of change of total area under curve (AUC) (Mouse PK (AUC); 2.0 mpk PO): approximately 25%
AUC (Mouse PK (AUC); oral, 0.07 mg/kg, 0.07 mpk): 11.3 ng·h/mL
AUC (Mouse PK (AUC); oral, 0.13 mg/kg, 0.13 mpk): 19.3 ng·h/mL
AUC (Mouse PK (AUC); oral, 0.27 mg/kg, 0.27 mpk): 38.1 ng·h/mL
AUC (Mouse PK (AUC); oral, 0.4 mg/kg, 0.4 mpk): 55.4 ng·h/mL
AUC (Mouse PK (AUC); oral, 0.8 mg/kg, 0.8 mpk): 109 ng·h/mL
AUC (Mouse PK (AUC); oral, 1 mg/kg, 1.0 mpk): 136 ng·h/mL
AUC (Mouse PK (AUC); oral, 1.4 mg/kg, 1.4 mpk): 183 ng·h/mL
AUC (Mouse PK (AUC); oral, 1.5 mg/kg, 1.5 mpk): 203 ng·h/mL
AUC (Mouse PK (AUC); oral, 2.5 mg/kg, 2.5 mpk): 336 ng·h/mL
AUC (Mouse PK (AUC); oral, 2.6 mg/kg, 2.6 mpk): 355 ng·h/mL
AUC (Mouse PK (AUC); oral, 3 mg/kg, 3.0 mpk): 403 ng·h/mL
AUC (Mouse PK (AUC); oral, 10 mg/kg, 10 mpk): 1340 ng·h/mL
AUC (Mouse PK (AUC); po, 2 mg/kg, 2.0 mpk): 270 ng·h/mL
F_human (equation result) ([1]; From Dog): 66.28
F_human (equation result) ([1]; From Mouse): 65.16
F_human (equation result) ([1]; From Rat): 59.26
human Ka ([1]; estimated assuming Tmax in a human is 1 hour, value set): 2.8 h⁻¹
human F calculated by literature equation ([1]; from dog): ~0.66
human F calculated by literature equation ([1]; from mouse): about 0.65
human F calculated by literature equation ([1]; from rat): ~0.59
CL Clearance, Predicted Value ([1]; predicted for a 70 kg human): 8.95 L/h
F Absolute bioavailability, Predicted Value ([1]; predicted for a 70 kg human): 0.6
Ka The first-order absorption rate constant, Predicted Value ([1]; predicted for a 70 kg human): 2.8 h⁻¹
Q Intercompartmental clearance, Predicted Value ([1]; predicted for a 70 kg human): 250.52 L/h
Vc Central volume = V2, Predicted Value ([1]; predicted for a 70 kg human): 29.50 L
Vp Peripheral volume = V3, Predicted Value ([1]; predicted for a 70 kg human): 12.92 L
human F (set value) ([1]; set in consideration of the results): 0.6
average absorption rate constant (Ka) ([2]; average from three species): approximately 2.63 h^−1
bioavailability ([2]; mouse, rat, dog, in vivo, average from three species, read-out: average bioavailability (F)): ~54%
Tmax ([2]; mouse, rat, dog, in vivo, range of the three species): 0.25 to 2 h
F Absolute bioavailability [3]: 0.6
Ka The first-order absorption rate constant [3]: 2.8 h⁻¹
anti-cancer effects (tumor volume) (MV4-11 AML cells [4]): very excellent anti-cancer effects
anticancer effect [5]: significant anticancer effect
toxicity [6]: so severe that therapeutic efficacy was not observed
DNMT removal and inhibitory activities in cells (DNMT1): high DNMT removal and inhibitory activities in cells
rate of degradation by cytidine deaminase (cytidine deaminase): reduced rate of degradation by cytidine deaminase
bioavailability [7]: 43.2%
AUC(0-inf) ([7]; iv, 1 mg/kg): 1900 ng·h/mL
C0 ([7]; iv, 1 mg/kg): 562 ng/mL
Vd ([7]; iv, 1 mg/kg): 3.53 L/kg
clearance ([7]; iv, 1 mg/kg): 8.83 mL/min/kg
half-life ([7]; iv, 1 mg/kg): 5.01 h
bioavailability [8]: 68.7%
AUC(0-inf) ([8]; iv, 0.33 mg/kg): 1130 ng·h/mL
C0 ([8]; iv, 0.33 mg/kg): 586 ng/mL
Vd ([8]; iv, 0.33 mg/kg): 0.81 L/kg
clearance ([8]; iv, 0.33 mg/kg): 5 mL/min/kg
half-life ([8]; iv, 0.33 mg/kg): 2.25 h
bioavailability [9]: 50.6%
AUC(0-inf) ([9]; iv, 1 mg/kg): 406 ng·h/mL
C0 ([9]; iv, 1 mg/kg): 616 ng/mL
Vd ([9]; iv, 1 mg/kg): 1.9 L/kg
clearance ([9]; iv, 1 mg/kg): 42.3 mL/min/kg
half-life ([9]; iv, 1 mg/kg): 0.6 h
blood analysis: major parameters (WBC, neutrophil, platelet, RBC levels) (MV4-11 AML cells [10]): no change in major parameters
therapeutic efficacy against MDS/AML (MV4-11 AML cells [11]; 1.4 to 2.6 mpk based on a mouse): excellent therapeutic efficacy against MDS/AML
efficacy (MV4-11 AML cells [11]; 1.5 mpk PO, three cycles): an efficacy which did not reach that of the PO administration of 2.0 to 2.5 mpk of Aza-T-dCyd
clinical observations including body weight (MV4-11 AML cells [11]; 2.0 mpk PO, one cycle): stay in the normal range
clinical observations including mouse body weight (MV4-11 AML cells [11]; 2.0 mpk PO, three cycles): remained in the normal range
survival improvement (MV4-11 AML cells [11]; 2.0 mpk PO, three cycles): very excellent survival improvement
death of subjects (MV4-11 AML cells [11]; 2.5 mpk PO, three cycles): led to the death of some subjects
survival improvement (MV4-11 AML cells [11]; one cycle, Aza-T-dCyd 2.0 mpk PO, decitabine and azacytidine at optimal doses as controls): very excellent survival improvement

Nc1ncn([C@@H]2O[C@H](CO)[C@@H](O)[C@H]2O)c(=O)n1 [azacytidine, reference compound]
blood analysis: major parameters (WBC, neutrophil, platelet, RBC levels) (MV4-11 AML cells [10]): severe neutropenia

Nc1ncn([C@H]2C[C@H](O)[C@@H](CO)O2)c(=O)n1 [decitabine, reference compound]
Q Intercompartmental clearance [12, 16]: 23 L/h
Vc Central volume = V2 [12, 16]: 32 L
Vp Peripheral volume = V3 [12, 16]: 40 L
CL Clearance ([12]; human, reported in literature, used in human simulation): 152 L/h
half-life (in vivo [13]): 0.4 h
half-life (in vivo [14]): 3.71 h
half-life (in vivo [15]): 1.19 h
AUC(0-inf) ([7]; iv, 1 mg/kg): 2370 ng·h/mL
C0 ([7]; iv, 1 mg/kg): 504 ng/mL
Vd ([7]; iv, 1 mg/kg): 2.16 L/kg
clearance ([7]; iv, 1 mg/kg): 7 mL/min/kg
AUC(0-inf) ([8]; iv, 0.33 mg/kg): 1080 ng·h/mL
C0 ([8]; iv, 0.33 mg/kg): 746 ng/mL
Vd ([8]; iv, 0.33 mg/kg): 0.476 L/kg
clearance ([8]; iv, 0.33 mg/kg): 5.17 mL/min/kg
AUC(0-inf) ([9]; iv, 1 mg/kg): 268 ng·h/mL
C0 ([9]; iv, 1 mg/kg): 579 ng/mL
Vd ([9]; iv, 1 mg/kg): 1.7 L/kg
clearance ([9]; iv, 1 mg/kg): 62.5 mL/min/kg
